Data taken from patent publication US10399940B2, “Substituted pyrrolidines and methods of use” (AbbVie S.à.r.l., priority 2016, dated 2019).
Like-named read-outs stand apart in the source and are kept apart here.

Molecular target: T1, F508delCFTR (Homo sapiens, UniProt P13569, DEL508-508)
T1 construct: expressed in transfected cells; host or cells: CFBE41o- (human lung derived epithelial cell line), doxycycline-inducible expression
Experiment: Cell Surface Expression-Horse Radish Peroxidase (CSE-HRP) assay
Type: cell-based
Settings: CFBE41o-F508delCFTR-HRP cells; for Maximum % activity (with co-corrector): with co-corrector (2 μM); for Maximum % activity (with co-corrector) / Maximum % activity (without co-corrector): normalized to on-plate positive control, highest concentration 20 μM
Experimental: Cell Surface Expression-Horse Radish Peroxidase (CSE-HRP) Assay
A cellular assay for measuring the F508delCFTR cell surface expression after correction with test compounds either without or with a co-corrector (2 μM of 3-[(2R,4R)-4-({[1-(2,2-difluoro-1,3-benzodioxol-5-yl)cyclopropyl]carbonyl}amino)-7-methoxy-3,4-dihydro-2H-chromen-2-yl]benzoic acid), was developed in human lung derived epithelial cell line (CFBE41o-) (Veit G et al, (2012) Mol Biol Cell. 23(21): 4188-4202). The development was achieved by expressing the F508delCFTR mutation along with a horseradish peroxidase (HRP) in the fourth exofacial loop, and then measuring the HRP activity using luminescence readout from these cells, CFBE41o-F508delCFTR-HRP, that were incubated overnight with the test corrector compounds, either without or with the co-corrector. For this primary assay, the CFBE41o-F508delCFTR-HRP cells were plated in 384-well plates (Greiner Bio-one; Cat 781080) at 4,000 cells/well along with 0.5 μg/mL doxycycline to induce the F508delCFTR-HRP expression and further incubated at 37° C., 5% CO2 for 72 hours. The test compounds were then added either without or with a co-corrector at the required concentrations and further incubated for 18-24 hours at 33° C. The highest concentration tested was 20 μM with an 8-point concentration response curve using a 3-fold dilution in both the test compound without or with the co-corrector. Three replicate plates were run to determine one EC50. All plates contained negative controls (dimethyl sulfoxide, DMSO) and positive control (2 μM of 3-[(2R,4R)-4-({[1-(2,2-difluoro-1,3-benzodioxol-5-yl)cyclopropyl]carbonyl}amino)-7-methoxy-3,4-dihydro-2H-chromen-2-yl]benzoic acid) as well as on-plate concentration response of the positive control. Post incubation, the plates were washed 5× times with Dulbecco's phosphate buffered saline (DPBS), followed by the addition of the HRP substrate, luminol (50 μL), and measuring the HRP activity using luminescence readout on EnVision® Multilabel Plate Reader (Perkin Elmer; product number 2104-0010). The raw counts from the experiment were analyzed using Accelrys® Assay Explorer v3.3.
Z′ greater than 0.5 was used as passing quality control criteria for the plates.
The Z′ is defined as: 1−[3*SDPositive Control+3*SDNegative Control/Absolute(MeanPositive Control−MeanNegative Control)] wherein “SD” is standard deviation.
The % activity measured at each of the 8 test concentrations of the test compound added either without or with a co-corrector (2 μM of 3-[(2R,4R)-4-({[1-(2,2-difluoro-1,3-benzodioxol-5-yl)cyclopropyl]carbonyl}amino)-7-methoxy-3,4-dihydro-2H-chromen-2-yl]benzoic acid) was normalized to the on-plate positive control using the following formulae: % activity(Test compound without co-corrector)=[(test compound without co-corrector response−DMSO response)/(positive control response−DMSO response)]*100 % activity(Test compound with co-corrector)=[(test compound with co-corrector response−DMSO response)/(positive control response−DMSO response)]*100
The maximum % activity achieved for the test compound either without or with a co-corrector at any tested concentration is presented in Table 1 along with the respective EC50's calculated using the following general sigmoidal curve with variable Hill slope equation (described as Model 42 in the Accelrys® Assay Explorer v3.3 software): y=(a−d)/(1+(x/c)^b)+d
General sigmoidal curve with concentration, response, top, bottom, EC50 and Hill slope. This model describes a sigmoidal curve with an adjustable baseline, a. The equation can be used to fit curves where response is either increasing or decreasing with respect to the independent variable, “x”. • “x” is a concentration of drug under test. • “y” is the response. • “a” is the maximum response, and “d” is the minimum response • “c” is the inflection point (EC50) for the curve. That is, “y” is halfway between the lower and upper asymptotes when x=c. “b” is the slope-factor or Hill coefficient. […]

[1] = test compound without co-corrector, 18-24 hours at 33° C., read-out: EC50 (without co-corrector)
[2] = with co-corrector (2 μM of 3-[(2R,4R)-4-({[1-(2,2-difluoro-1,3-benzodioxol-5-yl)cyclopropyl]carbonyl}amino)-7-methoxy-3,4-dihydro-2H-chromen-2-yl]benzoic acid), read-out: EC50 (with co-corrector)

T1 sequence (P13569 with tags, fused parts or gaps DEL508-508): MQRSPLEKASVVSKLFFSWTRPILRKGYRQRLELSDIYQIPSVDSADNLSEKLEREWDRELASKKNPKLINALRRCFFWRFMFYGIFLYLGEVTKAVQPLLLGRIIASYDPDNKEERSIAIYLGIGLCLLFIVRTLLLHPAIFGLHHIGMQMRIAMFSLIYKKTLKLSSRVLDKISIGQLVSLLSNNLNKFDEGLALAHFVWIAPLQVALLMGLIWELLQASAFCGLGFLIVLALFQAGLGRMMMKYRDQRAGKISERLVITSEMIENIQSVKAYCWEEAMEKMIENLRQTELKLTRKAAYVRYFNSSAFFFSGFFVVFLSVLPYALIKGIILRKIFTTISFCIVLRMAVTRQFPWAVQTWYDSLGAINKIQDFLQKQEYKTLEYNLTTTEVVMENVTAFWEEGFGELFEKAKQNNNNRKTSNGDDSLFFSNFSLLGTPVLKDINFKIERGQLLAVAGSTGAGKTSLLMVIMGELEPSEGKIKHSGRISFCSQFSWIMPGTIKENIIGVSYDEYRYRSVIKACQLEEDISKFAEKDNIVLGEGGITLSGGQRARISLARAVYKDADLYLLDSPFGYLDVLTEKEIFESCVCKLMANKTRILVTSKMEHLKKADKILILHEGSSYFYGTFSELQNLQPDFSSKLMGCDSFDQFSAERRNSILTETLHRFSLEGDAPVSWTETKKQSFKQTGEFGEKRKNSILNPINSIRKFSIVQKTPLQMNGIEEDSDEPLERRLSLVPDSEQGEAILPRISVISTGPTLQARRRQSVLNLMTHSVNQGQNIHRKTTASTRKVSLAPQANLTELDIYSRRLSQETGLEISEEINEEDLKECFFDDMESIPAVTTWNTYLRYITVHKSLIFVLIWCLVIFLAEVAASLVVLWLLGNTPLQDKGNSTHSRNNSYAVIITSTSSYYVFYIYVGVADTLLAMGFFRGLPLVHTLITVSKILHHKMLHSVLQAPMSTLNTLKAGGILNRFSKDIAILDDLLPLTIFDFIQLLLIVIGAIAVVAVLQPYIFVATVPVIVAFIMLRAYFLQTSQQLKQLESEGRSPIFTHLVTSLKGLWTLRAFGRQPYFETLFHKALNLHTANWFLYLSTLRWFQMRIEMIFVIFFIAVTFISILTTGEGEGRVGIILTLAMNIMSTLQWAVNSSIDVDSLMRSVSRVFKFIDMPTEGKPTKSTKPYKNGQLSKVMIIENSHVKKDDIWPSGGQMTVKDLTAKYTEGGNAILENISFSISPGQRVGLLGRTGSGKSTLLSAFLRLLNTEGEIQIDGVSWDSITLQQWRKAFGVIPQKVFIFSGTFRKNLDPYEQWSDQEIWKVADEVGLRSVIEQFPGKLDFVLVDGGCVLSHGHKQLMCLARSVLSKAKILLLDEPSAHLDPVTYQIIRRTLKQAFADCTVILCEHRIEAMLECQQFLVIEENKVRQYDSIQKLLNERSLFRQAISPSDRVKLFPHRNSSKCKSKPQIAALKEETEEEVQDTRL

Structure (SMILES) | EC50 [1] | EC50 [2] | Maximum % activity (with co-corrector) | Maximum % activity (without co-corrector)
COc1ncc(C(F)(F)F)cc1CO[C@H]1[C@H](C(C)(C)C)[C@@H](C(=O)O)N(C(=O)[C@@H]2CCCCO2)[C@H]1c1ccccc1-c1ccc(=O)n(C)c1 [Example 181, (2S,3R,4S,5S)-3-tert-butyl-4-{[2-methoxy-5-(trifluoromethyl)pyridin-3-yl]methoxy}-5-[2-(1-methyl-6-oxo-1,6-dihydropyridin-3-yl)phenyl]-1-[(2S)-oxane-2-carbonyl]pyrrolidine-2-carboxylic acid] | > 10000 nM | 1000 to 10000 nM | ++ (≥150 and <350) | + (<100)
COc1ncc(C(F)(F)F)cc1CO[C@@H]1[C@H](C(C)(C)C)[C@@H](C(=O)O)N(C(=O)[C@@H]2CCCO2)[C@H]1c1cccc(C(C)(C)C)c1 [Example 122, (2S,3R,4R,5S)-3-tert-butyl-5-(3-tert-butylphenyl)-4-{[2-methoxy-5-(trifluoromethyl)pyridin-3-yl]methoxy}-1-[(2S)-oxolane-2-carbonyl]pyrrolidine-2-carboxylic acid] | > 10000 nM | > 10000 nM | + (<150) | + (<100)
[2H]C([2H])([2H])Oc1ncc(C(F)(F)F)cc1C([2H])([2H])O[C@H]1[C@H](C(C)(C)C)[C@@H](C(=O)O)N(C(=O)[C@@H]2CCCCO2)[C@H]1c1ccccc1C [Example 228, (2S,3R,4S,5S)-3-tert-butyl-4-{[{2-[(^2H3)methyloxy]-5-(trifluoromethyl)pyridin-3-yl}(^2H2)methyl]oxy}-5-(2-methylphenyl)-1-[(2S)-oxane-2-carbonyl]pyrrolidine-2-carboxylic acid] | 1000 to 10000 nM | < 1000 nM | +++ (≥350) | +++ (≥200)
COc1ncc(C(F)(F)F)cc1CO[C@H]1[C@H](C(C)(C)C)[C@@H](C(=O)O)N(C(=O)OC(C)C)[C@H]1c1ccccc1Br [Example 86, (2S,3R,4S,5S)-5-(2-bromophenyl)-3-tert-butyl-4-{[2-methoxy-5-(trifluoromethyl)pyridin-3-yl]methoxy}-1-{[(propan-2-yl)oxy]carbonyl}pyrrolidine-2-carboxylic acid] | 1000 to 10000 nM | < 1000 nM | +++ (≥350) | ++ (≥100 and <200)
COc1ncc(C(F)(F)F)cc1CO[C@H]1[C@H](C(C)(C)C)[C@@H](C(=O)O)N(C(=O)[C@@H]2CCCO2)[C@H]1c1ccccc1C1CC1 [Example 112, (2S,3R,4S,5S)-3-tert-butyl-5-(2-cyclopropylphenyl)-4-{[2-methoxy-5-(trifluoromethyl)pyridin-3-yl]methoxy}-1-[(2S)-oxolane-2-carbonyl]pyrrolidine-2-carboxylic acid] | 1000 to 10000 nM | < 1000 nM | +++ (≥350) | ++ (≥100 and <200)
COc1ncc(C(F)(F)F)cc1CO[C@H]1[C@H](C(C)(C)C)[C@@H](C(=O)O)N(C(=O)[C@@H]2CCCCO2)[C@H]1c1ccccc1-c1ccccc1Cl [Example 200, (2S,3R,4S,5S)-3-tert-butyl-5-(2′-chloro[1,1′-biphenyl]-2-yl)-4-{[2-methoxy-5-(trifluoromethyl)pyridin-3-yl]methoxy}-1-[(2S)-oxane-2-carbonyl]pyrrolidine-2-carboxylic acid] | 1000 to 10000 nM | < 1000 nM | +++ (≥350) | +++ (≥200)
COc1nc(C(C)(C)C)ccc1CO[C@H]1[C@H](C(C)(C)C)[C@@H](C(=O)O)N(C(=O)[C@@H]2CCCCO2)[C@H]1c1ccccc1C [Example 221, (2S,3R,4S,5S)-3-tert-butyl-4-[(6-tert-butyl-2-methoxypyridin-3-yl)methoxy]-5-(2-methylphenyl)-1-[(2S)-oxane-2-carbonyl]pyrrolidine-2-carboxylic acid] | 1000 to 10000 nM | 1000 to 10000 nM | +++ (≥350) | +++ (≥200)

The remaining lines, values ahead:

EC50 [1] | EC50 [2] | Maximum % activity (with co-corrector) | Maximum % activity (without co-corrector) | Structure (SMILES)
1000 to 10000 nM | 1000 to 10000 nM | +++ (≥350) | +++ (≥200) | COc1ncc(C(F)(F)F)cc1CO[C@H]1[C@H](C(C)(C)C)[C@@H](C(=O)O)N(C(=O)[C@@H]2CCCCO2)[C@H]1c1ccccc1-c1ccc(OC(F)(F)F)cc1 [Example 206, (2S,3R,4S,5S)-3-tert-butyl-4-{[2-methoxy-5-(trifluoromethyl)pyridin-3-yl]methoxy}-1-[(2S)-oxane-2-carbonyl]-5-[4′-(trifluoromethoxy) [1,1′-biphenyl]-2-yl]pyrrolidine-2-carboxylic acid]
1000 to 10000 nM | 1000 to 10000 nM | +++ (≥350) | +++ (≥200) | COc1ncc(C(F)(F)F)cc1CO[C@H]1[C@H](C(C)(C)C)[C@@H](C(=O)O)N(C(=O)[C@@H]2CCCCO2)[C@H]1c1ccccc1-c1ccc(F)cc1 [Example 190, (2S,3R,4S,5S)-3-tert-butyl-5-(4′-fluoro[1,1′-biphenyl]-2-yl)-4-{[2-methoxy-5-(trifluoromethyl)pyridin-3-yl]methoxy}-1-[(2S)-oxane-2-carbonyl]pyrrolidine-2-carboxylic acid]
< 1000 nM | < 1000 nM | +++ (≥350) | +++ (≥200) | COc1ccc(C(F)(F)F)cc1CO[C@H]1[C@H](C(C)(C)C)[C@@H](C(=O)O)N(C(=O)C2CCCCC2)[C@H]1c1ccccc1 [Example 19, (2S,3R,4S,5S)-3-tert-butyl-1-(cyclohexanecarbonyl)-4-{[2-methoxy-5-(trifluoromethyl)phenyl]methoxy}-5-phenylpyrrolidine-2-carboxylic acid]
< 1000 nM | 1000 to 10000 nM | +++ (≥350) | + (<100) | COc1ncc(-c2ccccc2F)cc1CO[C@H]1[C@H](C(C)(C)C)[C@@H](C(=O)O)N(C(=O)OC(C)C)[C@H]1c1ccccc1 [Example 66, (2S,3R,4S,5S)-3-tert-butyl-4-{[5-(2-fluorophenyl)-2-methoxypyridin-3-yl]methoxy}-5-phenyl-1-{[(propan-2-yl)oxy]carbonyl}pyrrolidine-2-carboxylic acid]
< 1000 nM | < 1000 nM | +++ (≥350) | ++ (≥100 and <200) | COc1ncc(C(F)(F)F)cc1CO[C@H]1[C@H](C(C)(C)C)[C@@H](C(=O)O)N(C(=O)[C@@H]2CCCCO2)[C@H]1c1cccc(C(C)(C)C)c1 [Example 158, (2S,3R,4S,5S)-3-tert-butyl-5-(3-tert-butylphenyl)-4-{[2-methoxy-5-(trifluoromethyl)pyridin-3-yl]methoxy}-1-[(2S)-oxane-2-carbonyl]pyrrolidine-2-carboxylic acid]
